The values below come from article PMC7734281, “Functionalized Oxoindolin Hydrazine Carbothioamide Derivatives as Highly Potent Inhibitors of Nucleoside Triphosphate Diphosphohydrolases” (Frontiers in Pharmacology, 2020).

Experiment [1] concerns mice pancreatic islets. The experiment in a line: Glucose stimulated insulin secretion in isolated mice islets (ELISA). It is filed as cell-based, BALB/c mice. The settings on record: 16.7 mM glucose, compound 200 µM, 1 h, 37°C. How it is done: Six to eight week old BALB/c mice, weighing 30–40 g, were used in the study. These mice were obtained from the animal house of COMSATS University Islamabad, Abbottabad Campus and placed under standard temperature (25 ± 2°C) and humidity (50–55%) conditions with an alternate 12-h light/dark cycle. All the experimental animals were provided with a continuous supply of food and water. The animals were handled according to internationally accepted guidelines of animal care and use. Moreover, this study was reviewed and approved by Research Ethics Committee, Department of Pharmacy, COMSATS University Islamabad, Abbottabad Campus. (Protocol number: PHM.Eth./CS-M01-020-1609)
The islets were isolated from mice pancreas as previously described, by a process involving collagenase digestion ([Hameed et al., 2018]). Briefly, mice were anesthetized with sodium thiopental (30 mg kg) and sacrificed by cervical dislocation to block the flow of blood. Immediately, mice were transferred to biological hood and their abdominal cavity was opened completely by making an incision on abdomen. In order to stop the bile flow toward duodenum, ampulla was located and clamped under dissection microscope. Then, distention of pancreas was carried out by injecting 3 ml of collagenase solution (1 mg/ml) through common bile duct. The distended pancreas was removed as a whole, transferred to a 50 ml tube and digested in collagenase solution at 37°C. After 15 min, digestion was stopped by placing the tube on ice and 20 ml of Hank’s Balanced Salt Solution (HBSS) was added to it. Thus the digested islets were washed with HBSS (two to three times) by centrifugation (1,000 rpm) for 1 min at 4°C. Finally, islets were purified by passing through a cell strainer (70 µm) and isolated manually (by hand picking) under stereomicroscope (Euromex, Arnhem, Netherlands). All the purification and isolation procedures were carried out in HBSS, containing no magnesium, calcium and phenol red.
Krebs-Ringer bicarbonate buffer (KRBB) was used as an incubation medium for islets and was composed of NaCl (118 mM), KCl (4.7 mM), CaCl2 (1.9 mM), MgSO4 (1.2 mM), NaHCO3 (25 mM), 4-(2-hydroxyethyl)-1-piperazineethanesulfonic acid (HEPES, 10 mM) and bovine serum albumin (0.1%). The pH of KRBB was maintained at 7.4. The isolated islets were size-matched and pre-incubated (3 islets/tube) for 45 min at 37°C in KRBB, supplemented with 3 mM glucose. Thereafter, incubation medium was replaced with fresh KRBB (containing 16.7 mM glucose) and islets were incubated for 60 min at 37°C with or without test substance(s). After incubation, supernatant was collected and stored at −40°C until further use. Finally, collected samples were properly diluted and insulin secretion was estimated with ultra-sensitive mouse insulin ELISA kit (Crystal Chem Inc., Downers Grove, United States) according to the manufacturer’s instructions. The absorbance was measured at 450 nm and insulin secretion was normalized for number of islets used. ([Hameed et al., 2018]).
In general terms: In an ELISA, binding on a coated surface is turned into a signal by an enzyme label.

Experiment [2] has as its target T1, h-NTPDase1 (Homo sapiens, UniProt P49961).
T1 construct: made in house; host or cells: COS-7 cells, transient transfection; crude protein extract after sonication
T1 sequence (P49961 1-510): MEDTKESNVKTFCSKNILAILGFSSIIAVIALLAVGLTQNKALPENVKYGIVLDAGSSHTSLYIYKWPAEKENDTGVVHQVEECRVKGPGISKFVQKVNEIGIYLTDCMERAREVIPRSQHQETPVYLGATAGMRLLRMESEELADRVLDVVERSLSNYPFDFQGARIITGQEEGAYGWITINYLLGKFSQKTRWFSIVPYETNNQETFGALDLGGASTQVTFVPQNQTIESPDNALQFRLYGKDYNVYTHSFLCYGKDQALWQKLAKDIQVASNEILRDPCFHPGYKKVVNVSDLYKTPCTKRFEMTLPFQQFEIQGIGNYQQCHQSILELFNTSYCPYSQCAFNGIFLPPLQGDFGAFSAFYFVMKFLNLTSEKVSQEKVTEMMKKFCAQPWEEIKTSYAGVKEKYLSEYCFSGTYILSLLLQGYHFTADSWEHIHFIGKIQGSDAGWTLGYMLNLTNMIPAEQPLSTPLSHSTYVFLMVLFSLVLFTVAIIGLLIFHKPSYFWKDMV
On the set-up: method as in Lecka et al., 2013. As to conditions: selective inhibitor of h-NTPDase1; ref Lecka et al., 2013; cited from earlier work.

Regarding `O=C1Nc2ccccc2C1=O` [isatin], the “Effect on glucose stimulated insulin secretion” value in experiment [1] is “Neither suramin nor isatin had any significant effect”.

A word on the Ki: it is a dissociation constant, usually derived from enzyme kinetics or from competition with a known ligand. As for `CCCCSc1nc2c(N)ncnc2n1[C@@H]1O[C@H](COP(=O)(O)OP(=O)(O)OP(=O)(O)O)[C@@H](O)[C@H]1O` [8-Bus-ATP], in experiment [2], the Ki is 800 ± 200 nM.
